Laboratory results taken from ChEMBL document CHEMBL3994585, “Synthesis of α-santonin derivatives for diminutive effect on T and B-cell proliferation and their structure activity relationships” (Eur J Med Chem, 2017).

Key:
T-cell [1] = experiment: Immunosuppressive activity in Balb/c mouse T cells assessed as ConA-induced cell proliferation at 100 uM after 48 hrs by MTT assay relative to control; format: functional
T-cell [2] = experiment: Cytotoxicity against Balb/c mouse T cells assessed as reduction in cell proliferation at 1 uM after 48 hrs by MTT assay; format: cell-based
B-cell [3] = experiment: Immunosuppressive activity in Balb/c mouse B cells assessed as LPS-induced cell proliferation at 10 uM after 48 hrs by MTT assay relative to control; format: functional
B-cell [4] = experiment: Cytotoxicity against Balb/c mouse B cells assessed as reduction in cell proliferation at 1 uM after 48 hrs by MTT assay; format: cell-based
T-cell [5] = experiment: Cytotoxicity against Balb/c mouse T cells assessed as reduction in cell proliferation at 100 uM after 48 hrs by MTT assay; format: cell-based
B-cell [6] = experiment: Cytotoxicity against Balb/c mouse B cells assessed as reduction in cell proliferation at 10 uM after 48 hrs by MTT assay; format: cell-based
T-cell [7] = experiment: Cytotoxicity against Balb/c mouse T cells assessed as reduction in cell proliferation at 10 uM after 48 hrs by MTT assay; format: cell-based
T-cell [8] = experiment: Immunosuppressive activity in Balb/c mouse T cells assessed as ConA-induced cell proliferation at 1 uM after 48 hrs by MTT assay relative to control; format: functional
B-cell [9] = experiment: Immunosuppressive activity in Balb/c mouse B cells assessed as LPS-induced cell proliferation at 1 uM after 48 hrs by MTT assay relative to control; format: functional
T-cell [10] = experiment: Immunosuppressive activity in Balb/c mouse T cells assessed as ConA-induced cell proliferation at 10 uM after 48 hrs by MTT assay relative to control; format: functional
B-cell [11] = experiment: Immunosuppressive activity in Balb/c mouse B cells assessed as LPS-induced cell proliferation at 100 uM after 48 hrs by MTT assay relative to control; format: functional
B-cell [12] = experiment: Cytotoxicity against Balb/c mouse B cells assessed as reduction in cell proliferation at 100 uM after 48 hrs by MTT assay; format: cell-based
T-cell [13] = experiment: Immunostimulant activity in Balb/c mouse T cells assessed as ConA-induced cell proliferation at 1 uM after 48 hrs by MTT assay relative to control; format: ADME, cell-based
T-cell [14] = experiment: Immunostimulant activity in Balb/c mouse T cells assessed as ConA-induced cell proliferation at 10 uM after 48 hrs by MTT assay relative to control; format: ADME, cell-based
T-cell [15] = experiment: Immunostimulant activity in Balb/c mouse T cells assessed as ConA-induced cell proliferation at 100 uM after 48 hrs by MTT assay relative to control; format: ADME, cell-based
B-cell [16] = experiment: Immunostimulant activity in Balb/c mouse B cells assessed as LPS-induced cell proliferation at 1 uM after 48 hrs by MTT assay relative to control; format: ADME, cell-based
B-cell [17] = experiment: Immunostimulant activity in Balb/c mouse B cells assessed as LPS-induced cell proliferation at 10 uM after 48 hrs by MTT assay relative to control; format: ADME, cell-based
B-cell [18] = experiment: Immunostimulant activity in Balb/c mouse B cells assessed as LPS-induced cell proliferation at 100 uM after 48 hrs by MTT assay relative to control; format: ADME, cell-based

SMILES | Activity (T-cell [1]) [%] | Activity (T-cell [2]) | Activity (B-cell [3]) [%] | Activity (B-cell [4]) | Activity (T-cell [5]) | Activity (B-cell [6]) | Activity (T-cell [7]) | Activity (T-cell [8]) [%] | Activity (B-cell [9]) [%] | Activity (T-cell [10]) [%] | Activity (B-cell [11]) [%] | Activity (B-cell [12]) | Activity (T-cell [13]) [%] | Activity (T-cell [14]) [%] | Activity (T-cell [15]) [%] | Activity (B-cell [16]) [%] | Activity (B-cell [17]) [%] | Activity (B-cell [18]) [%]
CCOC(=O)[C@H](C)c1ccc2c(C)cc(OC)c(C)c2c1 | -5.88 | Non-Toxic | -23.07 | Non-Toxic | Toxic | Toxic | Toxic | -31.61 | -40.1 | -37.5 | -25.82 | Toxic | – | – | – | – | – | –
Cc1ccc(NC(=O)[C@H](C)[C@@H]2CCc3c(C)cc(O)c(C)c3C2)cc1O | – | Non-Toxic | – | Non-Toxic | Non-Toxic | Non-Toxic | Non-Toxic | – | – | – | -29.35 | Non-Toxic | 11.53 | 3.84 | 9.89 | 6.96 | 11.44 | –
COc1cc(C)c2ccc([C@@H](C)C(=O)O)cc2c1C | – | Toxic | – | Toxic | Non-Toxic | Toxic | Toxic | – | – | -25 | – | Non-Toxic | 9.52 | – | 13.07 | 86.66 | 13.33 | 4.76
CC(=O)OCC(C)C1CCc2c(C)cc(OC(C)=O)c(C)c2C1O (stereo unspecified) | – | Toxic | – | Toxic | Non-Toxic | Toxic | Toxic | – | – | – | – | Non-Toxic | 37.11 | 17.52 | 18.55 | 2.65 | 1.76 | 5.3
CCOC(=O)[C@H](C)c1ccc2c(C)cc(O)c(C)c2c1 | – | Toxic | – | Toxic | Toxic | Toxic | Toxic | – | -3.84 | – | -6.41 | Toxic | 15.59 | 39.78 | 5.91 | – | 23.5 | –
Cc1c(N)c(O)c(C)c2c1CC[C@H]1[C@H](C)C(=O)O[C@@H]21 | – | Toxic | – | Toxic | Toxic | Toxic | Toxic | – | – | – | -16.66 | Toxic | 13.97 | 36.02 | 5.91 | 17.52 | 33.33 | –
Cc1cc(OCc2cnnn2-c2ccc3c(c2)OCO3)c(C)c2c1CC[C@H]1[C@H](C)C(=O)O[C@@H]21 | -29.47 | – | -50.52 | – | – | – | – | -29.47 | -14.73 | -45.26 | -32.63 | – | – | – | – | – | – | –
Cc1cc(O)c(C)c2c1CC[C@@H]([C@@H](C)C(=O)Nc1nccc(C)c1[N+](=O)[O-])C2 | -26.37 | Toxic | – | Toxic | Non-Toxic | Toxic | Toxic | – | – | – | -2.98 | Non-Toxic | 24.72 | 42.85 | – | 28.35 | 64.67 | –
Cc1ccc(I)cc1-n1nncc1COc1cc(C)c2c(c1C)[C@@H]1OC(=O)[C@@H](C)[C@@H]1CC2 | -23.15 | – | -14.73 | – | – | – | – | -13.68 | -34.73 | -26.31 | -16.84 | – | – | – | – | – | – | –
Cc1cc(O)c(C)c2c1CCC(C(C)CO)C2O (stereo unspecified) | – | Toxic | – | Toxic | Toxic | Toxic | Toxic | – | – | – | -11.96 | Toxic | 31.18 | 26.34 | 6.45 | 14.52 | 8.54 | –
CC1=C(Cl)C=C[C@]2(C)CC[C@@H]3C(=C12)OC(=O)[C@H]3C | – | Toxic | – | Toxic | Toxic | Toxic | Toxic | -5.15 | -8.84 | – | -4.42 | Toxic | – | 16.49 | 9.27 | – | 7.96 | –
CC(=O)Nc1ccc(-n2nncc2COc2cc(C)c3c(c2C)[C@@H]2OC(=O)[C@@H](C)[C@@H]2CC3)cc1 | -6.31 | – | -36.84 | – | – | – | – | -28.42 | -44.21 | -29.47 | -8.42 | – | – | – | – | – | – | –
Cc1cc(OCc2cnnn2-c2ccc(C=O)cc2)c(C)c2c1CC[C@H]1[C@H](C)C(=O)O[C@@H]21 | -20.83 | – | -22.5 | – | – | – | – | -5.83 | -24.16 | -6.66 | -35 | – | – | – | – | – | – | –
Cc1cc(OCc2cnnn2-c2cccc(I)c2)c(C)c2c1CC[C@H]1[C@H](C)C(=O)O[C@@H]21 | -3.15 | – | -20 | – | – | – | – | -15.79 | -15.79 | -20 | -15.79 | – | – | – | – | – | – | –
COc1ccc2cc(-n3nncc3COc3cc(C)c4c(c3C)[C@@H]3OC(=O)[C@@H](C)[C@@H]3CC4)ccc2c1 | -93.9 | – | -25.64 | – | – | – | – | -93.9 | -36.75 | -95.12 | -94.01 | – | – | – | – | – | – | –
Cc1cc(O)c(C)c2c1CCC1C2OC(O)C1C (stereo unspecified) | – | Toxic | – | Toxic | Toxic | Toxic | Toxic | – | – | – | -12.38 | Toxic | 31.95 | 16.49 | 16.49 | 13.27 | 9.73 | –
COc1cc(-n2nncc2COc2cc(C)c3c(c2C)[C@@H]2OC(=O)[C@@H](C)[C@@H]2CC3)cc(OC)c1OC | -16.84 | – | -26.31 | – | – | – | – | -20 | -16.84 | -14.73 | -14.73 | – | – | – | – | – | – | –
COc1cccc(NC(=O)[C@H](C)[C@@H]2CCc3c(C)cc(O)c(C)c3C2)c1 | -31.86 | Toxic | – | Toxic | Non-Toxic | Non-Toxic | Non-Toxic | – | -0.99 | -12.63 | -13.93 | Non-Toxic | 8.79 | – | – | – | 3.98 | –
Cc1cc(O)c(C)c2c1CC[C@@H]([C@@H](C)C(=O)N1CCOCC1)C2 | -21.42 | Non-Toxic | – | Non-Toxic | Non-Toxic | Non-Toxic | Non-Toxic | – | -4.97 | – | -2.98 | Non-Toxic | 8.79 | 12.08 | – | – | 14.92 | –
Cc1cc(OCc2cnnn2/C=C/c2ccccc2)c(C)c2c1CC[C@H]1[C@H](C)C(=O)O[C@@H]21 | -95.12 | – | -7.69 | – | – | – | – | -95.12 | – | -95.12 | – | – | – | – | – | 36.75 | – | 48.71
Cc1cc(O)c(C)c2c1CC[C@@H]([C@@H](C)C(=O)O)C2 | – | Toxic | -1.76 | Toxic | Toxic | Toxic | Toxic | – | – | – | – | Toxic | 4.12 | 3.09 | 1.03 | 15.92 | – | 20.35
CCOC(=O)[C@H](C)c1ccc2c(C)cc(O)c(C=O)c2c1 | – | Toxic | -5.3 | Toxic | Toxic | Toxic | Toxic | – | – | – | -2.65 | Toxic | 34.02 | 49.48 | 24.74 | 14.15 | – | –
